The nature of data set [1]: Human microsome stability assay. In kind it is in vitro ADME. The following applies: human liver microsomes, 1 μM test compound, 0.5 mg/mL microsomal protein, 37° C., pH 7.4, 0-30 minutes. Put shortly: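 Parent compound remaining was measured by LC-MS/MS at 0, 3, 6, 9, 15 and 30 min, following ACN quench. Reactions held 1 μM compound and 0.5 mg/mL human liver microsomal protein in pH 7.4 phosphate buffer at 37 °C, started by NADPH regeneration (1 mM NADP, 1 mM MgCl2); controls lacked NADPH.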

Data set [2] relates to HBsAg in HBV-infected PHH. Description: Cryopreserved primary human hepatocytes (PHH) HBV infection assay, extracellular HBsAg (CLIA). It counts as cell-based. The following applies: Hepatitis B virus, Hepatocyte, 216 h, read-out: HBsAg IC50, Cryopreserved PHH infected with HBV, 9 days post-compound treatment, extracellular HBsAg. The method, boiled down: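 Cryopreserved PHH were infected with 5.8×10^6 HBV genome equivalents in medium with 4% PEG8000 and 1% DMSO. After 9 days of treatment, extracellular HBsAg was measured by CLIA, and IC50 was derived from a 4-parameter logistic fit.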

In data set [3] the test system is HBeAg (surrogate marker for cccDNA) in HepDES19 cells. As to the kind of experiment: Engineered HepDES19 primary screen assay (HBeAg ELISA). In kind it is cell-based, HBV. The following applies: Hepatitis B virus, HepDES19, 120 h, read-out: IC50 (HBeAg level, HepDES19 primary screen assay), HepDES19 cells, 5 days compound incubation, HBeAg ELISA. The method, boiled down: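 IC50 values come from 4-parameter logistic fits of HBeAg ELISA signal, the cccDNA surrogate, with CCK-8 run in parallel for viability. Compounds at half-log dilutions with 1% DMSO were applied for 5 days at 37 °C to HepDES19 cells previously cultured 8 days without Tet.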
In general terms: An ELISA detects its analyte on a solid surface through an enzyme-linked reagent.

This is an account of results in patent US11708344B2, “Flavone derivatives for the treatment and prophylaxis of hepatitis B virus disease” (Hoffmann-La Roche Inc., priority 2018, dated 2023).

As a reminder, the IC50 is the concentration at which inhibition is half-maximal. Regarding `O=C(O)C1CC(OCCCOc2cc(C(F)(F)F)ccc2-c2cc(=O)c3cccc(Cl)c3o2)C1` (stereo not drawn) [Example C103, 3-[3-[2-(8-chloro-4-oxo-chromen-2-yl)-5-(trifluoromethyl)phenoxy]propoxy]cyclobutanecarboxylic acid], the “Clearance of Human microsome” value in data set [1] stood at 0.369 L/h/kg. Also, the IC50 in data set [2] stood at 7.56 µM; in data set [3], 2.28 µM.

Turning to `O=C(O)COCC(O)COc1cc(Br)ccc1-c1cc(=O)c2cccc(Cl)c2o1` (stereo not drawn) [Example C113, 2-[3-[5-bromo-2-(8-chloro-4-oxo-chromen-2-yl)phenoxy]-2-hydroxy-propoxy]acetic acid], the “Clearance of Human microsome” value in data set [1] was found to be 0.369 L/h/kg. The IC50 in data set [2] is 8.89 µM; in data set [3] it was 1.28 µM.

For `COc1cc(OCCO[C@H]2C[C@@H](C(=O)NS(=O)(=O)C3CC3)C2)c(-c2cc(=O)c3cccc(Cl)c3o2)cc1OC` [Example C119, Cis-3-[2-[2-(8-chloro-4-oxo-chromen-2-yl)-4,5-dimethoxy-phenoxy]ethoxy]-N-cyclopropylsulfonyl-cyclobutanecarboxamide], the “Clearance of Human microsome” value in data set [1] was found to be 0.383 L/h/kg. Also, the IC50 in data set [2] was 7.21 µM; in data set [3], 3.48 µM.

Take `CS(=O)(=O)NC(=O)COCCOc1cc(C(F)(F)F)ccc1-c1cc(=O)c2cccc(Cl)c2o1` [Example C120, 2-[2-[2-(8-chloro-4-oxo-chromen-2-yl)-5-(trifluoromethyl)phenoxy]ethoxy]-N-methylsulfonyl-acetamide]: the “Clearance of Human microsome” value in data set [1] is 0.369 L/h/kg. Further, the IC50 in data set [2] came out at 4.12 µM; in data set [3], 1.05 µM.

On to `CS(=O)(=O)NC(=O)[C@H]1C[C@@H](OCCOc2cc(Br)ccc2-c2cc(=O)c3cccc(Cl)c3o2)C1` [Example C122, Cis-3-[2-[5-bromo-2-(8-chloro-4-oxo-chromen-2-yl)phenoxy]ethoxy]-N-methylsulfonyl-cyclobutanecarboxamide], for which the “Clearance of Human microsome” value in data set [1] is 0.439 L/h/kg. Further, the IC50 was 4.81 µM in data set [2] and 1.05 µM in data set [3].

Consider `COc1cc(OCCO[C@H]2C[C@@H](C(=O)NS(C)(=O)=O)C2)c(-c2cc(=O)c3cccc(Cl)c3o2)cc1OC` [Example C125, 3-[2-[2-(8-chloro-4-oxo-chromen-2-yl)-4,5-dimethoxy-phenoxy]ethoxy]-N-methylsulfonyl-cyclobutanecarboxamide], for which the “Clearance of Human microsome” value in data set [1] amounted to 0.369 L/h/kg. Moreover, the IC50 turned out to be 7.17 µM in data set [2] and 4.91 µM in data set [3].
